Measurements published in article PMC8059291 (Antiviral Research, 2021).

Target: SARS-CoV-2 RdRp (Severe acute respiratory syndrome coronavirus 2, UniProt P0DTD1)
Assay: CoV-Gluc RNA levels by real-time RT-PCR after NA treatment
Assay type: cell-based
Details: HEK293T, 1 μM, 24 h

In the case of `CCC(CC)COC(=O)[C@H](C)N[P@](=O)(OC[C@H]1O[C@@](C#N)(c2ccc3c(N)ncnn23)[C@H](O)[C@@H]1O)Oc1ccccc1` [Remdesivir], the “reduction of minus-strand Gluc RNA” value is reported as 60%.
